This is an account of results in publication PMC7837508, “Interactions of the Diazabicyclooctane Serine β-Lactamase Inhibitor ETX1317 with Target Enzymes” (ACS Infectious Diseases, 2020).

Usually koff stands for the rate constant with which the complex falls apart.

Test [1] deals with T1, KPC-2 (Klebsiella pneumoniae, UniProt Q9F663).
T1 construct: made in house
Conditions: KPC-2, ambient temperature, pH 7.0, nitrocefin; ref 6 and 7; cited from earlier work.

Test [2] deals with T2, P. aeruginosa AmpC (Pseudomonas aeruginosa, UniProt P24735).
T2 construct: made in house
T2 sequence (P24735 27-397): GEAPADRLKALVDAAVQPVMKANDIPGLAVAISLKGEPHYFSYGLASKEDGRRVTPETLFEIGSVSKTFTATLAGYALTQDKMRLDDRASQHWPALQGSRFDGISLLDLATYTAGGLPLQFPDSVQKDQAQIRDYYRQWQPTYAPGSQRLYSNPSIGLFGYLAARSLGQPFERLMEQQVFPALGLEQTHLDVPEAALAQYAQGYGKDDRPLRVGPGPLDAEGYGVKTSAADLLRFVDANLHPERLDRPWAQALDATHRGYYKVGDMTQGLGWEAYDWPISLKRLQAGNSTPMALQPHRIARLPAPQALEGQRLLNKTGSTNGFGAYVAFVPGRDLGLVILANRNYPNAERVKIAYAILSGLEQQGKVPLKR
Conditions: ambient temperature, pH 7.0, nitrocefin, ref 6 and 7; cited from earlier work.

The subject of another test is CTX-M-14. Set-up: method as in PMID 32658473. Conditions: higher than that of avibactam; cited from earlier work.
Test [3] addresses T3, OXA-48 (Klebsiella pneumoniae, UniProt Q6XEC0).
T3 construct: made in house
Conditions: OXA-48, ambient temperature, pH 7.0, nitrocefin; ref 6 and 7; cited from earlier work.

In a further test the target is T4, AmpC (Pseudomonas aeruginosa, UniProt P24735).
T4 construct: made in house
T4 sequence (P24735 27-397): as above
Briefly: Partition ratio measurement. The test is classed as biochemical. Conditions: incubation 1 h, ambient temperature. On the procedure: (§1) Partition ratios were measured as described previously[10] at ambient temperature in Buffer A. ETX1317 was freshly dissolved in assay buffer and an arithmetic dilution series was prepared from 0 to 12 μM in 1.2 μM steps. Each of these was mixed with an equal volume of 6 μM β-lactamase. At each time point, the mixtures were diluted in buffer to 2-fold the final reaction concentration of enzyme. Then, 22.5 μL of enzyme + inhibitor solutions were mixed with 22.5 μL of 200 μM nitrocefin substrate in a clear polystyrene 384-well assay plate. The absorbance at 490 nm was monitored at 10-s intervals for 10 min with a Spectramax Plus 384 plate reader. The slopes of the progress curves (ΔA490/s) were calculated. The percent of the control value for each inhibitor concentration was plotted versus the inhibitor:enzyme molar ratio. A best-fit line was calculated with a fixed point at 100% on the y-axis.

Test [4] addresses T3, OXA-48. As to the kind of experiment: Partition ratio measurement. Conditions: OXA-48, incubation 1 h, ambient temperature. The test is classed as biochemical. On the procedure:
as §1

Test [5] concerns the target T5, SHV-5 (Klebsiella pneumoniae, UniProt P0A3M1).
T5 construct: made in house
Briefly: Partition ratio measurement. The test is classed as biochemical. Conditions: SHV-5, incubation 1 h, ambient temperature. Here is the method: as §1

For test [6], the target named is T6, CTX-M-15 (Escherichia coli, UniProt Q9EXV5).
T6 construct: made in house
T6 sequence (Q9EXV5 29-291, species assumed): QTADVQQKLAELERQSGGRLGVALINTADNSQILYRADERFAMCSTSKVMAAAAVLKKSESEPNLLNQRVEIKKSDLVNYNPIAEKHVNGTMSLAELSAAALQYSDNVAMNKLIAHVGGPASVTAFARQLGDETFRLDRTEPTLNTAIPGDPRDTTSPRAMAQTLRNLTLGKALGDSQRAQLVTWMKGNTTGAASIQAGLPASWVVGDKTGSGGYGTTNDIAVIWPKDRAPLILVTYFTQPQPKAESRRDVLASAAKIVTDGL
As to the kind of experiment: Partition ratio measurement. The test is classed as biochemical. Conditions: CTX-M-15, incubation 1 h, ambient temperature. Here is the method:
as §1

The target in test [7] is T1, KPC-2. Briefly: Partition ratio measurement. The format is biochemical. On the procedure:
as §1

The target in test [8] is T7, E. cloacae P99 (Enterobacter cloacae, UniProt P05364).
T7 construct: made in house
T7 sequence (P05364 21-381): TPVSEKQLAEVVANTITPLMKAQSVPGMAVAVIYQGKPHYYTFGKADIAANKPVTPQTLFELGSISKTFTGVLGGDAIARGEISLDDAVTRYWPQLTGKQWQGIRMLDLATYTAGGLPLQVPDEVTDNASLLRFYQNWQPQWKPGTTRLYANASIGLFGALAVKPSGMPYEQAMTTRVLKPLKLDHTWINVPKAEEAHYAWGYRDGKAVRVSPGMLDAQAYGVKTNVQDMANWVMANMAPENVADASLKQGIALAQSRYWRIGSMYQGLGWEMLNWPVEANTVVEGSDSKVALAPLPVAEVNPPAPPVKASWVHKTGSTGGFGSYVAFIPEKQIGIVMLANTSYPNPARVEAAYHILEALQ
Conditions: E. cloacae P99, ambient temperature, pH 7.0, nitrocefin; ref 6 and 7; cited from earlier work.

In test [9] the target is T6, CTX-M-15. Conditions: CTX-M-15, ambient temperature, pH 7.0, nitrocefin; ref 6 and 7; cited from earlier work.
Another test addresses OXA-24. Conditions: OXA-24, ambient temperature, pH 7.0, nitrocefin; ref 6 and 7; cited from earlier work.
The target of test [10] is T7, E. cloacae P99. Briefly: koff measurement by jump dilution. The test is classed as biochemical. Conditions: ambient temperature. Here is the method:
(§2) Dissociation rate constants (koff) were measured by the jump-dilution method at ambient temperature as described previously.[10] Enzymes at 500 000-fold the final β-lactamase assay concentration (see above) were incubated for 15–20 min with 3-fold molar excess of freshly dissolved ETX1317 at ambient temperature in Buffer A. The mixtures were then diluted 250 000-fold with Buffer A, and 22.5 μL of the dilutions was mixed with 22.5 μL of 200 μM nitrocefin in Buffer A. The absorbance at 490 nm was monitored at 30 s intervals for 2 h at ambient temperature with a Spectramax Plus 384 plate reader. Progress curves were fit by nonlinear regression using XLfit (ID Business Solutions, Boston, MA) to the following equation: [drawing 2] where P is A490, C is the initial A490, V0 is the initial rate of absorbance increase, Vs is the final rate of absorbance increase, t is time in seconds, and k is the first order rate constant for enzyme reactivation due to inhibitor dissociation, koff.

The target of test [11] is T5, SHV-5. Briefly: koff measurement by jump dilution. The test is classed as biochemical. Conditions: SHV-5, jump dilution, ambient temperature. Here is the method: as §2
Test [12] has as its target T6, CTX-M-15. Briefly: koff measurement by jump dilution. The test is classed as biochemical. Conditions: CTX-M-15, jump dilution, ambient temperature. Here is the method:
as §2

Test [13] addresses T1, KPC-2. Briefly: koff measurement by jump dilution. The format is biochemical. Conditions: KPC-2, jump dilution, ambient temperature. Here is the method: as §2
In test [14] the target is T2, P. aeruginosa AmpC. Briefly: koff measurement by jump dilution. The test is classed as biochemical. Conditions: ambient temperature. Here is the method:
as §2

Another test deals with T8, TEM-1 (Escherichia coli, UniProt P62593).
T8 construct: made in house
T8 sequence (P62593 24-286 limits assumed): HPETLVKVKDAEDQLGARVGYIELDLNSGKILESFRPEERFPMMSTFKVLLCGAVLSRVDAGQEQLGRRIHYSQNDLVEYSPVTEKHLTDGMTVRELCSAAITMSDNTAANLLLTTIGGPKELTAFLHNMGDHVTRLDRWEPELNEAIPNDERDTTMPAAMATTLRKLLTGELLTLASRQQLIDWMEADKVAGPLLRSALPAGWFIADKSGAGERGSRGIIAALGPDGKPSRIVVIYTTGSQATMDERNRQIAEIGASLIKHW
Briefly: koff measurement by jump dilution. The test is classed as biochemical. Conditions: TEM-1, jump dilution, ambient temperature. Here is the method:
as §2

T1 sequence (Q9F663 25-293, looked up, species assumed): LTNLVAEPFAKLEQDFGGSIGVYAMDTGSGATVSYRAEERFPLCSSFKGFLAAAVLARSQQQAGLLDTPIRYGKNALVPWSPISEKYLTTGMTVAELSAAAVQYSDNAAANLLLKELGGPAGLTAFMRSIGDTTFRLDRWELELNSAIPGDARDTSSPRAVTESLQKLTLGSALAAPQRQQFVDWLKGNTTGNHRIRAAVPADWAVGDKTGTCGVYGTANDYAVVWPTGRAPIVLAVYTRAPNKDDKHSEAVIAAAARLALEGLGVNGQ
T5 sequence (P0A3M1 22-286, species assumed): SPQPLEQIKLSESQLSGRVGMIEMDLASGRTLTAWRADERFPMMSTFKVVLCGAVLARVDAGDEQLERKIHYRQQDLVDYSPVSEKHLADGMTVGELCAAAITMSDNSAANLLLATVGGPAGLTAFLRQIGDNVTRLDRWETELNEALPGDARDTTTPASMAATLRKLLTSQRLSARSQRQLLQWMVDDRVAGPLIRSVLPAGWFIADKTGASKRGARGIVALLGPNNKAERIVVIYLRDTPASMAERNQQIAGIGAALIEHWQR
T3 sequence (Q6XEC0 23-265, looked up, species assumed): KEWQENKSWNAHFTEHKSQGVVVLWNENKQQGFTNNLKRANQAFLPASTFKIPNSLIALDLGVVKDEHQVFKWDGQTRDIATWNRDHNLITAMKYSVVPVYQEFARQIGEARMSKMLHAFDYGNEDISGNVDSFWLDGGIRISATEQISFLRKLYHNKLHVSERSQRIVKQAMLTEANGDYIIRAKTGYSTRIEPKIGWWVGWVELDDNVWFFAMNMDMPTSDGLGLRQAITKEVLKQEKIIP

Turning to `CC1=C[C@@H](C(N)=O)N2C[C@@H]1N(O[C@H](F)C(=O)O)C2=O` [ETX1317], the kinact/Ki at KPC-2 [1] is on record as 4.9 (±0.2) × 10^4 M^–1 s^–1; on P. aeruginosa AmpC [2], 1.20 (±0.04) × 10^4 M^–1 s^–1; on OXA-48 [3] it was 5.3 (±0.2) × 10^4 M^–1 s^–1; at E. cloacae P99 [8], 3.9 (±0.2) × 10^4 M^–1 s^–1; on CTX-M-15 [9] it was 4.8 (±0.4) × 10^6 M^–1 s^–1; at OXA-24, 4.6 (±0.2) × 10^3 M^–1 s^–1. The “potency of CTX-M-14 inhibition relative to avibactam” value with CTX-M-14 was “about 10 fold”. For the same compound, the partition ratio on AmpC is 1.0; at OXA-48 [4] it was 1.1; on SHV-5 [5], 0.9; on CTX-M-15 [6] it was 0.7; on KPC-2 [7] (KPC-2, 15 min incubation (not shown)), 1.1; at KPC-2 [7] (KPC-2, incubation of enzyme and inhibitor 3 h, ambient temperature), 1.1. Further, the koff at E. cloacae P99 [10] was 9.2e-05 s⁻¹; at SHV-5 [11], 0.002 s⁻¹; at CTX-M-15 [12], 0.00013 s⁻¹; on KPC-2 [13] it was 0.00052 s⁻¹; at P. aeruginosa AmpC [14], 0.0006 s⁻¹; at TEM-1, 0.008 s⁻¹.
